# Data: US20250051355A1, “COMPOUNDS, COMPOSITIONS, AND METHODS” (ACONCAGUA BIO, INC., priority 2023, published 2025)
# Columns and labels:
# Assay type in all cases: cell-based
# [1] = molecular target: T1, human calcitonin receptor (CTR) and RAMP3 (AMY3) (Homo sapiens, UniProt O60896+P30988); test: Amylin Receptor cAMP Assay I; details: COS-7/AMY3 cells, cAMP Hi-range Kit, read-out: Amylin Receptor cAMP Stimulation Activity: EC50
# From the text: Amylin Receptor cAMP Assay I
# AMYRs are heterodimers of the class B calcitonin (CT) G-protein-coupled receptor (CTR) and receptor activity-modifying proteins (RAMPs). All three RAMPs can interact with the CTR and form AMY1, AMY2, AMY3 with RAMP1, RAMP2 and RAMP3, respectively. Like other class B1 GPCRs, the CT receptor family is canonically coupled to Gs-mediated cAMP production, and measurement of cAMP accumulation has been the primary assay used to determine peptide selectivity and potency.
# To optimize functional activity directed toward Gas coupling, COS-7 cells were stably transfected with human calcitonin receptor (CTR) and RAMP3, simultaneously. 100×concentration of compound working solutions were prepared (Agilent Technologies Bravo) with 4-fold serial dilution in 384-well Echo LDV plate (Labcyte, Cat #LP-0200). 100 nL/well 100× concentration of compound working solutions were moved to 384-well white low volume plate (Greiner, Cat #784075) using Labcyte ECHO550. 1×10^5 cells/mL COS-7/CTR or COS-7/AMY3 (HD Biosciences) cell suspensions prepared with assay buffer [DPBS containing 0.5 mM IBMX (Sigma, Cat #15879) and 0.1% BSA (GENVIEW, Cat #FAO16-100 g)], 10 μL cell suspensions were added to each well of previous generated assay plate which already contains 100 nL compound at 100× concentration using ThermoFisher Multidrop Combi (1000 cells/well). Seal the plate and incubate at 37° C. with 5% CO2 for 30 min.
# After incubation, the cAMP assay signal was generated using cAMP Hi-range Kit (Cisbio). 5 μL cAMP-d2 working solution was added to each well, followed by 5 μL Anti-cAMP antibody-cryptate working solution which was added to each well using ThermoFisher Multidrop Combi. The samples were then incubated at room temperature for 1 hour protected from light. the fluorescence was read at 665 and 615 nm with Reader PerkinElmer EnVision.
# [2] = molecular target: T2, human calcitonin receptor (CTR) (Homo sapiens, UniProt P30988); test: Calcitonin receptor (CTR) cAMP Assay; details: COS7-human CTR Clone #2 cells, cAMP dynamic 2 kit; read-out: Calcitonin Receptor cAMP Stimulation Activity: EC50
# T2 construct: expressed in transfected cells; host or cells: COS-7 (COS7-human CTR Clone #2)
# T2 sequence (P30988 25-474): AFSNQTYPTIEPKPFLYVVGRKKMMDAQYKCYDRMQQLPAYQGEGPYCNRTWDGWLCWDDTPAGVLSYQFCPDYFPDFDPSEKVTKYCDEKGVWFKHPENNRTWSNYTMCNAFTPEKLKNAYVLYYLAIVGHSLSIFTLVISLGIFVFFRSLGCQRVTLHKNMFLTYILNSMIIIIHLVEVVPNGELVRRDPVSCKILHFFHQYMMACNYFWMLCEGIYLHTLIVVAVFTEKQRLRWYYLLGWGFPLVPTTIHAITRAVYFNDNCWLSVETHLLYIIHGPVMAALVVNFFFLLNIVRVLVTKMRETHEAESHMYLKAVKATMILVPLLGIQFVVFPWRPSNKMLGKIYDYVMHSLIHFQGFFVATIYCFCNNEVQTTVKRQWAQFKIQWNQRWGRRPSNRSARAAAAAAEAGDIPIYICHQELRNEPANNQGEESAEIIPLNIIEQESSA
# Procedure, shortened: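 COS-7 cells stably expressing human CTR (2000 cells/well) treated with 4-fold serially diluted compounds in HBSS/20 mM HEPES/0.5 mM IBMX/0.1% casein, 30 min at 37° C. cAMP quantified by HTRF (cAMP-d2 plus anti-cAMP cryptate, 1 h RT), fluorescence read at 665 and 615 nm.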
# [3] = molecular target: T1, human calcitonin receptor (CTR) and RAMP3 (AMY3); test: Amylin Receptor cAMP Assay II; details: COS-7/AMY3 cells, cAMP dynamic 2 kit, read-out: Amylin Receptor cAMP Stimulation Activity: EC50
# Procedure, shortened: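 COS-7 cells stably co-expressing human CTR and RAMP3 (AMY3) were treated with 4-fold serially diluted compounds at 2000 cells/well in HBSS with 20 mM HEPES, 0.5 mM IBMX and 0.1% casein for 30 min at 37 °C. cAMP was measured by HTRF (cAMP-d2 plus anti-cAMP cryptate, 1 h at RT) with reads at 665/615 nm.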
# T1 sequence (O60896 24-148, one chain of several): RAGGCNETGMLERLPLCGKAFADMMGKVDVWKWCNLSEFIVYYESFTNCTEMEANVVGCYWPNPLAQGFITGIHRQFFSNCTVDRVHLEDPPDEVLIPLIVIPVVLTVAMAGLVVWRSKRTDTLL
EC50 [1] [nM],EC50 [2] [nM],EC50 [3] [nM],SMILES
860,–,–,CO[C@H]1C[C@@H](Nc2nccc3cc(-c4c5c(nc(CCC6CCOCC6)c4-c4nnc(C)o4)[C@@H]4CCCN4C5=O)sc23)c2ccccc21 [Compound 74]
360,–,–,Cc1cnc(-c2c(CCC3CCOCC3)nc3c(c2-c2cc4ccnc(NCc5cncc(F)c5)c4s2)C(=O)N2CCC[C@@H]32)o1 [Compound 75]
81.4,–,–,Cc1nnc(-c2c(CCC3CCOCC3)nc3c(c2-c2cc4ccnc(N[C@@H]5CCc6ccc(F)cc65)c4s2)C(=O)N2CCC[C@@H]32)o1 [Compound 72]
674,–,–,"Cc1ccc(CCc2nc3c(c(-c4ccc(C(=O)NCc5ccc(F)c(F)c5)s4)c2-c2nnc(C)o2)C(=O)N2CCC[C@@H]32)nc1 [Compound 6, (S)—N-(3,4-difluorobenzyl)-5-(3-(5-methyl-1,3,4-oxadiazol-2-yl)-2-(2-(5-methylpyridin-2-yl)ethyl)-5-oxo-7,8,9,9a-tetrahydro-5H-pyrido[2,3-a]pyrrolizin-4-yl)thiophene-2-carboxamide]"
63.5,–,–,"CO[C@H]1C[C@@H](NC(=O)c2ccc(-c3c4c(nc(CCc5ccc(F)cc5)c3-c3nnc(C)o3)[C@@H]3CCCN3C4=O)s2)c2ccccc21 (stereo in doubt) [Compound 30, N-[(1R,3S)-3-methoxy-1-indanyl]-5-{(2S,6R)-11-[2-(p-fluorophenyl)ethyl]-10-(5-methyl-1,3,4-oxadiazol-2-yl)-7-oxo-6,12-diazatricyclo[6.4.0^2,^6]dodeca-1(8),9,11-trien-9-yl}-2-thenamide]"
79,–,–,Cc1nnc(-c2c(CCc3ccc(F)cc3)nc3c(c2-c2ccc(C(=O)NCc4ccc(F)c(F)c4)s2)C(=O)N2CCCC[C@@H]32)o1 [Compound 20]
113,–,–,Cc1cnc(-c2c(CCC3CCOCC3)nc3c(c2-c2ccc(C(=O)NCc4ccc(F)c(F)c4)s2)C(=O)N2CCC[C@@H]32)o1 [Compound 57]
1880,–,–,"Cc1nnc(-c2c(CCc3cnn(C)c3)nc3c(c2-c2ccc(C(=O)NCc4ccc(F)c(F)c4)s2)C(=O)N2CCC[C@@H]32)o1 [Compound 43, (S)—N-(3,4-difluorobenzyl)-5-(3-(5-methyl-1,3,4-oxadiazol-2-yl)-2-(2-(1-methyl-1H-pyrazol-4-yl)ethyl)-5-oxo-7,8,9,9a-tetrahydro-5H-pyrido[2,3-a]pyrrolizin-4-yl)thiophene-2-carboxamide]"
66.7,–,–,"Cc1nnc(-c2c(CCc3ccc(F)cc3)nc3c(c2-c2ccc(C(=O)N[C@@H]4COc5ccccc54)s2)C(=O)N2CCC[C@@H]32)o1 [Compound 10, N—((S)-2,3-dihydrobenzofuran-3-yl)-5-((S)-2-(4-fluorophenethyl)-3-(5-methyl-1,3,4-oxadiazol-2-yl)-5-oxo-7,8,9,9a-tetrahydro-5H-pyrido[2,3-a]pyrrolizin-4-yl)thiophene-2-carboxamide]"
2200,–,–,COc1cccc(CNc2nccc3cc(-c4c5c(nc(CCC6CCOCC6)c4-c4nnc(C)o4)[C@@H]4CCCN4C5=O)sc23)c1 [Compound 73]
–,0.398,9.66,"COc1cccc2c1CC[C@H]2Nc1nccc2cc(-c3c4c(nc(CCc5ccc(F)cc5)c3-c3nnc(N)o3)[C@@H]3CCCN3C4=O)sc12 [Compound 86, (2S)-9-(7-[(R)-4-methoxy-1-indanylamino]-1-thia-6-aza-2-indenyl}-10-(5-amino-1,3,4-oxadiazol-2-yl)-11-[2-(p-fluorophenyl)ethyl]-6,12-diazatricyclo[6.4.0.0^2,^6]dodeca-1(8),9,11-trien-7-one]"
–,1.86,15.2,"CC(C)c1nnc(-c2c(CCC3CCOCC3)nc3c(c2-c2ccc4c(c2)oc(=O)n4Cc2ccc(C#N)c(F)c2)c(=O)n2n3CCC2)o1 [Compound 150, 2-fluoro-4-[(6-(10-(5-isopropyl-1,3,4-oxadiazol-2-yl)-7-oxo-11-[2-(tetrahydro-2H-pyran-4-yl)ethyl]-2,6,12-triazatricyclo[6.4.0.0^2,6]dodeca-1(8),9,11-trien-9-yl}-2-oxo-1,3-benzoxazol-3-yl)methyl]benzonitrile]"
–,2.23,38.1,Cc1cnc(-c2c(CCC3CCOCC3)nc3c(c2-c2ccc4c(c2)oc(=O)n4Cc2ccc(C#N)cn2)C(=O)N2CCC[C@@H]32)o1 [Compound 101]
–,4380,> 100,"Cc1nnc(-c2c(CCC3CCOCC3)nc3c(c2-c2cn4c(N[C@@H]5CCc6ncccc65)cccc4n2)S(=O)(=O)CC3C(C)C)o1 (stereo partly drawn) [Compound 87, N—(R)-4-aza-1-indanyl(2-(3-isopropyl-6-(5-methyl-1,3,4-oxadiazol-2-yl)-1,1-dioxo-5-[2-(tetrahydro-2H-pyran-4-yl)ethyl]-1λ^6-thia-4-aza-7-indanyl}-1,3a-diaza-4-indenyl)amine]"
–,9.93,257,"CC(C)C1CS(=O)(=O)c2c1nc(CCC1CCOCC1)c(-c1nnc(CN(C)C)o1)c2-c1cc2ccnc(N[C@@H]3CCc4ncccc43)c2s1 (stereo partly drawn) [Compound 117, 7-(7-[(R)-4-aza-1-indanylamino]-1-thia-6-aza-2-indenyl}-6-(5-[(dimethylamino)methyl]-1,3,4-oxadiazol-2-yl}-3-isopropyl-5-[2-(tetrahydro-2H-pyran-4-yl)ethyl]-1λ^8-thia-4-aza-1,1-indandione]"
–,115,869,"Cc1nnc(-c2c(CCC3CCOCC3)nc3c(c2-c2cc4ccnc(Cc5ccc(F)c(F)c5)c4s2)S(=O)(=O)CC3C(C)C)o1 (stereo not shown) [Compound 138, 7-(7-[(3,4-difluorophenyl)methyl]-1-thia-6-aza-2-indenyl}-3-isopropyl-6-(5-methyl-1,3,4-oxadiazol-2-yl)-5-[2-(tetrahydro-2H-pyran-4-yl)ethyl]-1λ^6-thia-4-aza-1,1-indandione]"
–,9.56,385,"Cc1nnc(-c2c(CCC3CCOCC3)nc3c(c2-c2ccc4c(cnn4Cc4ccc(C#N)c(F)c4)c2)C(=O)N2CCOC[C@@H]32)o1 [Compound 105, 4-[(5-((4aR)-7-(5-methyl-1,3,4-oxadiazol-2-yl)-9-oxo-6-[2-(tetrahydro-2H-pyran-4-yl)ethyl]-1,2,4,4a-tetrahydro-9H-3-oxa-5,9a-diazafluoren-8-yl}-1H-indazol-1-yl)methyl]-2-fluorobenzonitrile]"
–,95.6,1080,"Cc1nnc(-c2c(CCC3CCOCC3)nc3c(c2-c2cc4ccnc(N[C@@H]5CCc6ncccc65)c4s2)c(=O)n2n3CCC2)o1 [Compound 113, 9-{7-[(R)-4-aza-1-indanylamino]-1-thia-6-aza-2-indenyl}-10-(5-methyl-1,3,4-oxadiazol-2-yl)-11-[2-(tetrahydro-2H-pyran-4-yl)ethyl]-2,6,12-triazatricyclo[6.4.0.0^2,6]dodeca-1(12),8,10-trien-7-one]"
–,42.2,243,"Cc1nnc(-c2c(CCC3CCOCC3)nc3c(c2-c2cc4ccnc(NCc5cnc(C#N)c(F)c5)c4s2)S(=O)(=O)CC3C(C)C)o1 (stereo not shown) [Compound 133, 3-fluoro-5-[(2-(3-isopropyl-6-(5-methyl-1,3,4-oxadiazol-2-yl)-1,1-dioxo-5-[2-(tetrahydro-2H-pyran-4-yl)ethyl]-1λ^6-thia-4-aza-7-indanyl}-1-thia-6-aza-7-indenylamino)methyl]-2-pyridinecarbonitrile]"
